Laboratory results as given in the OPERA property sets (Mansouri et al. 2018).

SMILES | logP
CC(C)=NO | 0.12
CC(=O)OC1COC(NC(=O)N(CCl)N=O)C(OC(C)=O)C1OC(C)=O (stereo not drawn) | 1.13
O=c1cc(-c2ccc(O)cc2)oc2ccccc12 | 3.2
CCOC(=O)c1ccc(NC(=O)C(F)(F)F)cc1 | 2.25
O=C(CCc1ccccc1)Nc1ccc(Cl)c(Cl)c1 | 4.85
c1ccc2c(c1)CNc1ccccc1C2 | 2.9
CCN(CC)Cc1ccc(C(=O)Nc2ccccc2)cc1 | 3.49
O=C(Nc1ccccc1)c1ccc(C(=O)Nc2ccccc2)cc1 | 3.72
Cc1c2ccncc2cc2c1[nH]c1ccccc12 | 4.06
Cc1[nH]c(=O)[nH]c(=O)c1N(CCF)CCCl | 0.85
CCNCC(F)(F)F | 0.74
CSc1ccc(NC(C)=O)cc1 | 2.03
NC(=O)c1nc[nH]c1N=NN(CCO)Cc1ccccc1 | 0.99
O=C(O)c1ccco1 | 0.64
Cc1csc(N=C(N)N)n1 | 1.24
O=NN(CCCl)C(=O)Nc1ccc(Cl)cc1 | 3.16
N=c1ccn2c(n1)O[C@H]1[C@H](O)[C@@H](CO)O[C@H]12 | -2.37
CN(C)CCC1CN(C)C(=S)c2cccnc2O1 (stereo not drawn) | 1.08
NCC(CC(=O)O)c1ccc(Cl)cc1 (stereo not drawn) | -0.96
COC1OC(COC(C)=O)C(OC(C)=O)C(NC(=O)N(CCCl)N=O)C1OC(C)=O (stereo not drawn) | 0.67
CCCCCCC1OC(=O)c2cc(N)ccc21 (stereo not drawn) | 3.65
CC(=O)Nc1ccc(Oc2ccccc2)cc1 | 3.13
CC(C)S(=O)(=O)n1c(N)nc2ccc(/C(=N/O)c3ccccc3)cc21 | 3.1
CSc1ncnc2c1ccn2C1OC(CO)C(O)C1O (stereo not drawn) | 0.09
CCOC(=O)c1cncn1C(C)c1ccccc1 (stereo not drawn) | 3.05

SMILES | logP
O=c1cc(-c2ccccc2)oc2cc(O)ccc12 | 3.62
NCC(=O)NCC(=O)NCC(=O)O | -2.68
CN(C(=O)CCC(N)=O)c1ccc(S(=O)(=O)N(C)C)cc1 | -0.56
CC1CCCN(N=O)C1=O (stereo not drawn) | -0.66
O=C(Nc1ccc(Cl)c(Cl)c1)C1CCCCC1 | 4.72
CCCc1c(OCCCCc2nnn[nH]2)ccc(C(C)=O)c1O | 3.82
O=C1CN=C(c2ccc[nH]2)c2cc(Cl)ccc2N1 | 2.59
CCCCOC(=O)c1cccc(C(=O)OCCCC)c1 | 4.26
CC1=Nc2ccc(I)cc2S(=O)(=O)N1 | 1.61
O=C(Nc1ccc(Cl)c(Cl)c1)C(F)F | 3.18
CCCCCC(=O)N(C)c1ccc(S(=O)(=O)N(C)C)cc1 | 2.16
CN=C=S | 0.94
CCCC1CC(C(=O)NC(C(C)O)C2OC(SC)C(O)C(O)C2O)N(CC)C1 (stereo not drawn) | 1.02
Cc1c(N2CCCC2)c(=O)n(-c2ccccc2)c(=O)n1C | 2.26
COC(=O)c1cccc(NC(C)=O)c1 | 1.46
O=S([O-])c1ccccc1.[Na+] | -3.54
CC(O)COc1cccc2oc(C(=O)O)cc(=O)c12 (stereo not drawn) | 1.32
OC(c1ccccc1)(c1ccccc1)c1ccccc1 | 3.68
Nc1nc(N)c2ncn(COCCO)c2n1 | -1.06
CC(=O)Nc1ccc2nccnc2c1 | 1
O=C1/C(=C2\Nc3ccccc3C2=O)Nc2ccccc21 | 3.72
CCOC(=O)CNCCCCCSc1c2[nH]cnc2nc[n+]1[O-] | 0.87
COc1cc(C=NO)ccc1OCCOC(=O)c1cccc(Cl)c1 | 3.94
COc1ccc2c(=O)c(C)c(C(C)C)oc2c1 | 3.39
CCC(C)NC(=O)C(=Cc1ccccc1)Sc1ccccc1 (stereo not drawn) | 4.36

SMILES | logP
CC(=O)N(CC(=O)Nc1ccccc1)c1ccccc1 | 2.01
NC(=O)NN=Cc1ccccc1 | 1.27
COc1ccc(-c2ncc[nH]2)c(OC)c1 | 1.72
CS(=O)(=O)F | 0.55
COC1OC(CNC(=O)N(C)N=O)C(O)C(O)C1O (stereo not drawn) | -1.57
CCOCCOC(=O)C(C#N)=C(NCc1ccc(Cl)cc1)C(C)C | 4.05
CC(=O)Nc1ccc(C(C)=O)cc1 | 1.24
O=c1cn[nH]c(=O)[nH]1 | -0.59
COC1OC(CO)C(O)C(NC(=O)N(C)N=O)C1O (stereo not drawn) | -0.82
CN(C)N=CCCc1ccccc1 | 2.05
CCOc1cc(Cc2cnc(N)nc2N)cc(OCC)c1 | 2.52
c1cc2n(n1)CCN2 | -0.25
CNC(=S)Nc1ccccc1 | 0.85
CC(=O)Nc1ccc(C(C)(C)C)cc1 | 3.05
CN(CCO)C1=C(N2CC2)C(=O)C(N(C)CCO)=C(N2CC2)C1=O | -0.37
O=S(Cc1ccccn1)c1nc2ccccc2[nH]1 (stereo not drawn) | 1.33
COc1cc(C)c2c(c1OC)-c1ccc(SC)c(=O)cc1C(NC1OCC(O)C(O)C1O)CC2 (stereo not drawn) | 1.4
COCCN(N=Nc1[nH]cnc1C(N)=O)C(C)(C)C | 1.14
CC(=O)NN=CCCc1ccccc1 | 1.8
CC(=O)NCCC(=O)N(C)c1ccc(S(=O)(=O)N(C)C)cc1 | -0.35
CN(C)N=Nc1cn(C2OC(CO)C(O)C2O)c(=O)[nH]c1=O (stereo not drawn) | -1.82
N#CCCN(CCC#N)/N=N/c1nc[nH]c1C(N)=O | -0.76
CN(C(=O)CCC#N)c1ccc(S(=O)(=O)N(C)C)cc1 | -0.17
C=CCN(C)N=Nc1ccc(C(N)=O)cc1 | 2.09
CNC(=S)NCC(F)(F)C(F)(F)C(F)(F)F | 1.99

SMILES | logP
CCC(C)N=C=S (stereo not drawn) | 2.81
COc1ccc(-c2nc3ccncc3[nH]2)c(OC)c1 | 2.56
O=C(O)Cc1n[nH]oc1=O | -1.66
Cc1c(N(C)C)c(=O)n(C)c(=O)n1C | 0.99
Cc1oc2ccccc2c(=O)c1C | 2.31
CCCCCCCCNC(N)=NNC(=O)Nc1ccc(Cl)cc1 | 4.35
O=C(NC(CO)C(O)c1ccc(NC(=O)C2CC2)cc1)C(Cl)Cl (stereo not drawn) | 0.75
COc1cc(S(C)=O)ccc1-c1cn2ccncc2n1 (stereo not drawn) | 1.11
FC(F)(F)CN(CC(F)(F)F)c1ccccc1 | 3.69
CSC(=O)Nc1ccccc1 | 2.4
CCOC(=O)CON=Cc1ccc(OCCOC(=O)c2cc(OC)c(OC)c(OC)c2)c(OC)c1 | 3.26
CCCC1CNC(C(=O)NC(C(C)O)C2OC(SC)C(O)C(O)C2O)C1 (stereo not drawn) | 0.04
COCC(=O)Nc1ccc(Cl)c(Cl)c1 | 2.77
COC(=O)c1ccccc1NC(C)=O | 1.65
Cc1nnc(SCc2ccccc2)s1 | 2.35
CC(C)OC(=O)c1ccccc1 | 3.18
CC(C)(C)C(=O)Nc1ccc(Cl)c(Cl)c1 | 3.88
O=C(C=Cc1ccc2c(c1)OCO2)N1CCCCC1 | 2.82
O=c1[nH]cc(I)c(=O)[nH]1 | 0.04
CC(=O)Nc1ccc2c(=O)c(C)c(C)oc2c1[N+](=O)[O-] | 1.61
CSc1cccc(NC(C)=O)c1 | 2.14
O=C(Nc1ccc(Cl)c(Cl)c1)C(F)(F)F | 3.9
CCCCC(=O)Nc1ccc(Cl)c(Cl)c1 | 4.17
CC(=O)Nc1ccc(C(F)(F)F)cc1 | 2.52
CCCCCCCCCCCCCCCC(=O)OCC1OC(n2ccc(N)nc2=O)C(O)C1O (stereo not drawn) | 5.03

SMILES | logP
O=C(Nc1ccc(Cl)c(Cl)c1)c1ccccc1 | 4.42
COc1cc(C=O)ccc1OCCOC(=O)c1ccc(Cl)cc1 | 3.71
COc1cc(Cc2cnc(N)nc2N)cc(OC)c1N(C)C | 1.51
CCOC(=O)CC(=O)C=Cc1ccc(C)cc1 | 2.63
COc1ccc(-c2nc3ccccc3[nH]2)c(OC)c1 | 2.59
CC(=O)Nc1cccc(I)c1 | 2.64
O=C(CN(C(=O)C(Cl)Cl)c1ccccc1)Nc1ccccc1 | 2.96
CC(=O)NC1CCSC1=O (stereo not drawn) | -0.35
COc1cc(C(=O)C=CN2CC=CC2)cc(OC)c1OC | 1.77
CC(=O)Nc1ccc2oc(C)c(C)c(=O)c2c1 | 1.79
c1ccc(-c2nnco2)cc1 | 1.31
S=C=Nc1cccc(Br)c1 | 4.12
CC=CC(=O)Nc1ccc(Cl)c(Cl)c1 | 3.63
CSc1ccccc1NC(C)=O | 1.53
c1ccc(CSc2nnc[nH]2)cc1 | 1.45
Cc1c(-c2ccccc2)oc2ccccc2c1=O | 3.92
C=CCn1c(C)c(N(C)C)c(=O)n(-c2ccccc2)c1=O | 1.44
NNc1ccc(Br)cc1 | 1.39
NC1=NS(=O)(=O)c2ccc(Cl)cc2N1 | 0.91
Cc1ccc(Cc2c[nH]c(NCCCCc3ccc(Br)cc3C)nc2=O)cn1 | 3.61
CC1(O)OC(=O)c2ccccc21 (stereo not drawn) | 0.81
CNC(=N[N+](=O)[O-])NCCSCc1nc[nH]c1C | 0.18
CC(=O)NNC(=O)c1ccccc1N(C)C | 1.49
CCC[Si](C)(C)C | 3.84
CC(=O)OC1CCCC(NC(=O)N(CCF)N=O)C1 (stereo not drawn) | 1.33

SMILES | logP
CCCCC1OC(=O)c2cc(N(CCO)CCO)ccc21 (stereo not drawn) | 1.34
C#CCCC(=O)N(C)c1ccc(S(=O)(=O)N(C)C)cc1 | 0.88
Cc1cccc(C)c1NC(=O)c1cccc(CN2CCCC2)c1 | 3.1
CN(Cc1ccccc1)N=Nc1[nH]cnc1C(N)=O | 1.54
CCOC(CP(=O)(OCC)OCC)OCC | 0.69
COc1cc(C=O)ccc1OCCO | 0.58
CC(=O)Nc1ccc(S(C)(=O)=O)cc1 | 0.58
O=C(Cc1ccccc1)Nc1ccc(Cl)c(Cl)c1 | 4.47
CCOCCOC(=O)C(C#N)=C(CC)NCc1ccc([N+](=O)[O-])cc1 | 2.64
NC(=O)N=[N+]([O-])c1ccccc1 | 0.58
Cc1cccc(C)c1NC(=O)c1cccc(CN2CCOCC2)c1 | 2.14
CCC1OC(=O)C(C)C(OC2CC(C)(OC)C(O)C(C)O2)C(C)C(OC2OC(C)C(O)C(N(C)C)C2O)C(C)(O)CC(C)C(=O)C(C)C(O)C1(C)O (stereo not drawn) | 1.44
O=CC(CO)OC(C=O)n1cnc2c(O)ncnc21 (stereo not drawn) | -2.11
CCC1OC(=O)C(C)C(OC2CC(C)(OC)C(O)C(C)O2)C(C)C(OC2OC(C)CC(N(C)C)C2O)C(C)(O)CC(C)C(=O)C(C)C(OC(C)=O)C1C (stereo not drawn) | 3.32
Cc1ccc(S(=O)(=O)Oc2ccccc2C(=O)N(C)C)cc1 | 2.01
CC1(C)N=C(N)N=C(N)N1c1ccc(OCC(=O)N2CCOCC2)cc1 | -1.18
CCCOCCC(=O)N(C)c1ccc(S(=O)(=O)N(C)C)cc1 | 1.26
CSc1nccc(=O)[nH]1 | 0.22
CCC1(C)CCC(=O)NC1=O (stereo not drawn) | 0.23
CCC(=O)OCCOc1ccc(C=NO)cc1OC | 1.52
NC(=O)c1cccnc1N | 0.88
CSc1ccc(C=NN=C(N)NO)cc1 | 0.32
COc1cccc(CC(C)N)c1OC (stereo not drawn) | 1.49
